{
  "source": "patent EP0523013B1",
  "about": "“Use of benzimidazoline-2-oxo-1-carboxylic acid derivatives in the treatment of organic mental diseases” (BOEHRINGER INGELHEIM ITALIA S.p.A., priority 1991, dated 1993)",
  "system": "scopolamine-induced impairment of passive avoidance response",
  "experiment": "passive avoidance test, scopolamine-induced impairment",
  "format": "in vivo, Male Sprague Dawley rats",
  "experimental": "Male Sprague Dawley rats weighing 175-200 g were used. The animals were kept in a regulated environment (20 ± 1°C, 50-55% humidity and 12 hours light-dark cycle, light on at 7.00 a.m.) and maintained with standard pellet diet. The apparatus used for the passive avoidance test was composed of a dark compartment (30x30x30 cm) with a grid floor and a compartment (30x30x30 cm) illuminated from above by a 20 W daylight lamp, the 2 compartments being separated by a guillotine-type door (10x8 cm). Scrambled electric shocks were delivered to the grid floor by an isolated stimulator.\nRats were divided in groups of 10 animals. • a) Training: each rat was placed gently in the lighted compartment and 10 sec later the door was opened. As soon as the rat had moved into the dark compartment and the door had been shut, a 1.6 mA foot-shock was applied for 1 sec. The rat was immediately removed from the apparatus and returned to the home cage. • b) Retention: the retention test was carried out 24 hours later by an observer unaware of the given treatment. Each rat was placed into the lighted compartment again and the step-through latency was recorded. The test is stopped when the rat enters the dark compartment or when it fails to do so in […] 180 sec.",
  "key": {"[1]": {"details": "step-through latency in retention test 24 hours after training, test compound 0.03 mg/kg i.p. 15 min before scopolamine 0.75 mg/kg i.p., which was given 30 min before training, mean ± S.E.M, 10 animals, cut-off 180 sec"}},
  "note": "Where a name gives a salt, the structure may show the parent alone. Marks after values point to notes of the source that are not given here.",
  "data": [
    {"molecule": "CN1[C@@H]2CC[C@H]1C[C@@H](NC(=O)n1c(=O)[nH]c3ccccc31)C2", "note": "[Compound 1, N-(endo-8-methyl-8-azabicyclo[3.2.1]oct-3-yl)-2,3-dihydro-2-oxo-1H-benzimidazole-1-carboxamide]", "values": [
      {"measurement": "LATENCY", "setting": "step-through latency in retention test 24 hours after training, test compound 0.01 mg/kg i.p. 15 min before scopolamine 0.75 mg/kg i.p., which was given 30 min before training, mean ± S.E.M, 10 animals, cut-off 180 sec", "value": "136 ± 16.0", "unit": "s"},
      {"measurement": "LATENCY", "setting": "[1]", "value": "109 ± 17.0", "unit": "s"}
    ]},
    {"molecule": "CCn1c(=O)n(C(=O)N[C@H]2C[C@H]3CC[C@@H](C2)N3C)c2ccccc21", "note": "[Compound 5, N-(endo-8-methyl-8-azabicyclo[3.2.1]oct.-3-yl)-2,3-dihydro-3-ethyl-2-oxo-1H-benzimidazole-1-carboxamide]", "values": [
      {"measurement": "LATENCY", "setting": "[1]", "value": "113 ± 17.0", "unit": "s"}
    ]},
    {"molecule": "CC(C)n1c(=O)n(C(=O)N[C@H]2C[C@H]3CC[C@@H](C2)N3C)c2ccccc21", "note": "[Compound 6, N-(endo-8-methyl-8-azabicyclo[3.2.1]oct.-3-yl)-2,3-dihydro-3-(1-methyl)ethyl-2-oxo-1H-benzimidazole-1-carboxamide, hydrochloric acid salt]", "values": [
      {"measurement": "LATENCY (SEC)", "setting": "[1]", "value": "140 + 16 ** SEC"}
    ]},
    {"molecule": "CN1[C@@H]2C[C@@H](OC(=O)[C@H](CO)c3ccccc3)C[C@H]1[C@@H]1O[C@@H]12", "note": "[Scopolamine, scopolamine, reference compound]", "values": [
      {"measurement": "LATENCY", "setting": "rat, in vivo, ip, 0.75 mg/kg", "value": "66 ± 18.7", "unit": "s"}
    ]}
  ]
}
